Data published in publication PMC10653080, “Intermolecular Interactions, Solute Descriptors, and Partition Properties of Neutral Per- and Polyfluoroalkyl Substances (PFAS)” (Environmental Science & Technology, 2023).
Read-outs that look alike come from different tables or passages of the source.

Test: PP-LFER solute descriptor determination from GC retention and partition coefficient data
Type: physicochemical
Details: for Solute descriptor S (dipolarity/polarizability parameter): final adjusted value, shared within a PFAS group
Description: The GC columns used were, from low to high polarity, HP-5ms Ultra Inert (poly[5% phenyl/95% methyl]siloxane equivalent; Agilent Technologies, Santa Clara, CA), DB-200 (poly[35% trifluoropropyl/65% methyl]siloxane; Agilent Technologies), DB-225ms (poly[50% cyanopropylphenyl/50% methyl]siloxane equivalent; Agilent Technologies), and SolGel-WAX (polyethylene glycol; Trajan, Ringwood, Australia). Column dimensions were all 30 m × 0.25 mm i.d. with a coating thickness of 0.25 μm.
The method for GC retention time measurements follows that of a previous study.[18] Briefly, a 7890A/5975C GC/MS instrument (Agilent Technologies) equipped with an MPS2 autosampler and CIS4 injector (Gerstel, Mülheim an der Ruhr, Germany) was used for all measurements. For each column, isothermal retention times were measured at four temperatures in the range of 30–120 °C to cover all target compounds. The temperature at the injector and transfer line was fixed at 120 °C. The carrier gas was He at a flow rate of 1.2 mL/min. Compounds were introduced into the GC by injecting either headspace (100–250 μL) above the pure compound or solution in acetone (1 μL). Split injections were performed with a split ratio of 20–250. Column dead time (t0) was determined by injecting air and measuring Ar (m/z 40). From the measured retention time (t), the retention factor (k) was calculated as k = (t–t0)/t0. Measurements with t < t0 + 0.1 min were considered too short and discarded. For each column and temperature, k values were obtained for 29–52 PFAS and 29–48 reference compounds.
The standard procedure for solute descriptor determination was as follows. First, the system parameters in eq 1 were calibrated for each column (or partition system) and temperature by MLR using log k (or log K) data and solute descriptors for reference compounds. Dimethylformamide, 1-pentylamine, dimethylsulfoxide, and dodecamethylcyclohexasiloxane (D6) were removed from the log k data sets, because they frequently appeared as outliers (>3 SD) of the PP-LFER model fit. Reference data sets for hexadecane/water partition coefficients (KHxd/w),[21]Kow,[22] and octanol/air partition coefficients (Koa)[23] were taken from the cited references and amended with data for organosilicon compounds.[24],[25] Similar to PFAS, organosilicon compounds have weak van der Waals interaction properties[9] and it may be beneficial to include them in reference data sets. The solute descriptors for PFAS were then back-calculated by using the calibrated PP-LFER equations. Of the five descriptors, V can be calculated from the molecular structure[26] (note: the fragment value for F from Goss et al.[11] was used), and L was available for the PFAS studied.[18] Thus, the left side of eq 2 was known, and MLR was performed to obtain S, A, and B on the right side. [drawing 2] 2 To determine the three descriptors, a minimum of three k and K data are required for a given PFAS compound. The data used here were: k measured for 60 PFAS in this study, KHxd/w for 21 PFAS,[5]Kow for 12 PFAS (see the Results and Discussion section), and Koa for 3 PFAS.[11]
Key to the accurate determination of the polar interaction descriptors is the availability of K data for partition systems with water as a partition phase because water is a strong H-bond donor and acceptor phase and thus the corresponding K values are sensitive to the H-bonding properties of the solute.[27] In particular, at least one solvent/water or air/water partition coefficient is required to determine B because there is no commonly used GC phase that is a significant H-bond donor. In the data set, KHxd/w is sensitive to both A and B and Kow is sensitive to B. However, KHxd/w and Kow data are not available for all PFAS. To increase the number of PFAS for which descriptors can be determined, the following assumptions were made. […]

[1] = 25 °C, updated in the iterative calculation
[2] = difference of descriptor values

FC(F)C(F)(F)C(F)(F)C(F)(F)C(F)(F)C(F)(F)C(F)(F)C(F)F [1,8-DHPFO, 1H,8H-Perfluorooctane]
Solute descriptor L (logarithmic hexadecane/air partition coefficient, KHxd/air) [1]: 2.130
A value higher than perfluorinated counterpart, perfluorooctane [2]: 0.24
L value higher than perfluorinated counterpart, perfluorooctane [2]: 0.78
Solute descriptor S (dipolarity/polarizability parameter): 0.38

C=CC(F)(F)C(F)(F)C(F)(F)C(F)(F)C(F)(F)C(F)(F)C(F)(F)C(F)(F)C=C [1,8-DVPFO, 1,8-Divinylperfluorooctane]
Solute descriptor L (logarithmic hexadecane/air partition coefficient, KHxd/air) [1]: 3.927
Solute descriptor S (dipolarity/polarizability parameter): 0.44

OCC(F)(F)C(F)(F)C(F)(F)F [3:1 FTOH, 1H,1H-Perfluorobutan-1-ol]
Solute descriptor L (logarithmic hexadecane/air partition coefficient, KHxd/air) [1]: 1.542
Solute descriptor S (dipolarity/polarizability parameter): 0.30

FC(F)(F)C(F)(F)C(F)(F)C(F)(F)CCI [4:2 FTI, 1H,1H,2H,2H-Perfluorohexyl iodide]
Solute descriptor L (logarithmic hexadecane/air partition coefficient, KHxd/air) [1]: 3.325
Solute descriptor S (dipolarity/polarizability parameter): 0.32

C=C(C)C(=O)OCCC(F)(F)C(F)(F)C(F)(F)C(F)(F)F [4:2 FTMAC, 1H,1H,2H,2H-Perfluorohexyl methacrylate]
Solute descriptor L (logarithmic hexadecane/air partition coefficient, KHxd/air) [1]: 3.990
Solute descriptor S (dipolarity/polarizability parameter): 0.53

C=CC(F)(F)C(F)(F)C(F)(F)C(F)(F)F [4:2 FTO, 1H,1H,2H-Perfluoro-1-hexene]
Solute descriptor L (logarithmic hexadecane/air partition coefficient, KHxd/air) [1]: 1.451
Solute descriptor S (dipolarity/polarizability parameter): 0.11

C=CC(=O)OCCC(F)(F)C(F)(F)C(F)(F)C(F)(F)C(F)(F)C(F)(F)F [6:2 FTAC, 1H,1H,2H,2H-Perfluorooctyl acrylate]
Solute descriptor L (logarithmic hexadecane/air partition coefficient, KHxd/air) [1]: 4.098
Solute descriptor S (dipolarity/polarizability parameter): 0.54

OCc1ccc(CCC(F)(F)C(F)(F)C(F)(F)C(F)(F)C(F)(F)C(F)(F)F)cc1 [6:2 FTBnOH, 4-(1H,1H,2H,2H-Perfluorooctyl)benzyl alcohol]
Solute descriptor L (logarithmic hexadecane/air partition coefficient, KHxd/air) [1]: 6.656
Solute descriptor S (dipolarity/polarizability parameter): 0.75

FC(F)(F)C(F)(F)C(F)(F)C(F)(F)C(F)(F)C(F)(F)CCI [6:2 FTI, 1H,1H,2H,2H-Perfluorooctyl iodide]
Solute descriptor L (logarithmic hexadecane/air partition coefficient, KHxd/air) [1]: 3.892
Solute descriptor S (dipolarity/polarizability parameter): 0.32

C=C(C)C(=O)OCCC(F)(F)C(F)(F)C(F)(F)C(F)(F)C(F)(F)C(F)(F)F [6:2 FTMAC, 1H,1H,2H,2H-Perfluorooctyl methacrylate]
Solute descriptor L (logarithmic hexadecane/air partition coefficient, KHxd/air) [1]: 4.553
Solute descriptor S (dipolarity/polarizability parameter): 0.53

C=CC(F)(F)C(F)(F)C(F)(F)C(F)(F)C(F)(F)C(F)(F)F [6:2 FTO, 1H,1H,2H-Perfluoro-1-octene]
Solute descriptor L (logarithmic hexadecane/air partition coefficient, KHxd/air) [1]: 2.022
Solute descriptor S (dipolarity/polarizability parameter): 0.11

C=CC(=O)OCCC(F)(F)C(F)(F)C(F)(F)C(F)(F)C(F)(F)C(F)(F)C(F)(F)C(F)(F)F [8:2 FTAC, 1H,1H,2H,2H-Perfluorodecyl acrylate]
Solute descriptor L (logarithmic hexadecane/air partition coefficient, KHxd/air) [1]: 4.661
Solute descriptor S (dipolarity/polarizability parameter): 0.54

CC(=O)OCCC(F)(F)C(F)(F)C(F)(F)C(F)(F)C(F)(F)C(F)(F)C(F)(F)C(F)(F)F [8:2 FTAce, 1H,1H,2H,2H-Perfluorodecyl acetate]
Solute descriptor L (logarithmic hexadecane/air partition coefficient, KHxd/air): 4.234
Solute descriptor S (dipolarity/polarizability parameter): 0.54

FC(F)(F)C(F)(F)C(F)(F)C(F)(F)C(F)(F)C(F)(F)C(F)(F)C(F)(F)CCI [8:2 FTI, 1H,1H,2H,2H-Perfluorodecyl iodide]
Solute descriptor L (logarithmic hexadecane/air partition coefficient, KHxd/air) [1]: 4.455
Solute descriptor S (dipolarity/polarizability parameter): 0.32

C=C(C)C(=O)OCCC(F)(F)C(F)(F)C(F)(F)C(F)(F)C(F)(F)C(F)(F)C(F)(F)C(F)(F)F [8:2 FTMAC, 1H,1H,2H,2H-Perfluorodecyl methacrylate]
Solute descriptor L (logarithmic hexadecane/air partition coefficient, KHxd/air): 5.115
Solute descriptor S (dipolarity/polarizability parameter): 0.53

C=CC(F)(F)C(F)(F)C(F)(F)C(F)(F)C(F)(F)C(F)(F)C(F)(F)C(F)(F)F [8:2 FTO, 1H,1H,2H-Perfluoro-1-decene]
Solute descriptor L (logarithmic hexadecane/air partition coefficient, KHxd/air) [1]: 2.504
Solute descriptor S (dipolarity/polarizability parameter): 0.11

C=CC(=O)OCCC(F)(F)C(F)(F)C(F)(F)C(F)(F)C(F)(F)C(F)(F)C(F)(F)C(F)(F)C(F)(F)C(F)(F)F [10:2 FTAC, 1H,1H,2H,2H-Perfluorododecyl acrylate]
Solute descriptor L (logarithmic hexadecane/air partition coefficient, KHxd/air): 5.221
Solute descriptor S (dipolarity/polarizability parameter): 0.54

FC(F)(F)C(F)(F)C(F)(F)C(F)(F)C(F)(F)C(F)(F)C(F)(F)C(F)(F)C(F)(F)C(F)(F)CCI [10:2 FTI, 1H,1H,2H,2H-Perfluorododecyl iodide]
Solute descriptor L (logarithmic hexadecane/air partition coefficient, KHxd/air): 5.020
Solute descriptor S (dipolarity/polarizability parameter): 0.32

C=C(C)C(=O)OCCC(F)(F)C(F)(F)C(F)(F)C(F)(F)C(F)(F)C(F)(F)C(F)(F)C(F)(F)C(F)(F)C(F)(F)F [10:2 FTMAC, 1H,1H,2H,2H-Perfluorododecyl methacrylate]
Solute descriptor L (logarithmic hexadecane/air partition coefficient, KHxd/air): 5.671
Solute descriptor S (dipolarity/polarizability parameter): 0.53

C=CC(F)(F)C(F)(F)C(F)(F)C(F)(F)C(F)(F)C(F)(F)C(F)(F)C(F)(F)C(F)(F)C(F)(F)F [10:2 FTO, 1H,1H,2H-Perfluoro-1-dodecene]
Solute descriptor L (logarithmic hexadecane/air partition coefficient, KHxd/air): 3.031
Solute descriptor S (dipolarity/polarizability parameter): 0.11

OCCC(F)(F)C(F)(F)C(F)(F)C(F)(F)C(F)(F)C(F)(F)C(F)(F)C(F)(F)C(F)(F)C(F)(F)F [10:2 FTOH, 1H,1H,2H,2H-Perfluorododecan-1-ol]
Solute descriptor L (logarithmic hexadecane/air partition coefficient, KHxd/air): 4.117
Solute descriptor S (dipolarity/polarizability parameter): 0.35

OCCC(F)(F)C(F)(F)C(F)(F)C(F)(F)C(F)(F)C(F)(F)C(F)(F)C(F)(F)C(F)(F)C(F)(F)C(F)(F)C(F)(F)F [12:2 FTOH, 1H,1H,2H,2H-Perfluorotetradecan-1-ol]
Solute descriptor L (logarithmic hexadecane/air partition coefficient, KHxd/air): 4.682
Solute descriptor S (dipolarity/polarizability parameter): 0.35

C=CCOCC(F)(F)C(F)(F)C(F)(F)C(F)(F)C(F)(F)C(F)(F)C(F)(F)F [AFOE, Allyl 1H,1H-perfluorooctyl ether]
Solute descriptor L (logarithmic hexadecane/air partition coefficient, KHxd/air) [1]: 3.584
Solute descriptor S (dipolarity/polarizability parameter): 0.30

C=CCOC(F)(C(F)(F)F)C(F)(F)F [APFIPE, Allyl perfluoroisopropyl ether]
Solute descriptor L (logarithmic hexadecane/air partition coefficient, KHxd/air) [1]: 1.717
Solute descriptor S (dipolarity/polarizability parameter): 0.15

CCNS(=O)(=O)C(F)(F)C(F)(F)C(F)(F)C(F)(F)C(F)(F)C(F)(F)F [EtFHxSA, N-Ethylperfluorohexanesulfonamide]
Solute descriptor L (logarithmic hexadecane/air partition coefficient, KHxd/air) [1]: 4.400
Solute descriptor S (dipolarity/polarizability parameter): 0.88

CCN(CCO)S(=O)(=O)C(F)(F)C(F)(F)C(F)(F)C(F)(F)C(F)(F)C(F)(F)F [EtFHxSE, N-Ethylperfluorohexanesulfonamidoethanol]
Solute descriptor L (logarithmic hexadecane/air partition coefficient, KHxd/air) [1]: 5.685
Solute descriptor S (dipolarity/polarizability parameter): 1.00

CCNS(=O)(=O)C(F)(F)C(F)(F)C(F)(F)C(F)(F)C(F)(F)C(F)(F)C(F)(F)C(F)(F)F [EtFOSA, N-Ethylperfluorooctanesulfonamide]
Solute descriptor L (logarithmic hexadecane/air partition coefficient, KHxd/air): 4.967
Solute descriptor S (dipolarity/polarizability parameter): 0.88

CCN(CCO)S(=O)(=O)C(F)(F)C(F)(F)C(F)(F)C(F)(F)C(F)(F)C(F)(F)C(F)(F)C(F)(F)F [EtFOSE, N-Ethylperfluorooctanesulfonamidoethanol]
Solute descriptor L (logarithmic hexadecane/air partition coefficient, KHxd/air): 6.253
Solute descriptor S (dipolarity/polarizability parameter): 1.00
